We go through six compounds from publication PMC8286840, “Identifying SARS-CoV-2 antiviral compounds by screening for small molecule inhibitors of Nsp3 papain-like protease” (Biochemical Journal, 2021).

In data set [1] the target is T1, SARS-CoV-2 PLpro (nsp3 1564–1878) (Severe acute respiratory syndrome coronavirus 2, UniProt P0DTD1). The data set can be described thus: biochemical. The note with it: read-out: % of control remaining.
Data set [2] addresses T1, SARS-CoV-2 PLpro (nsp3 1564–1878). The data set can be described thus: biochemical. The note with it: read-out: % of control remaining. This is another data set of the same source.
Data set [3] shares this target. The data set can be described thus: biochemical. It counts as biochemical. The note with it: for IC50: fluorescent-based assay; for Z score: screen hits, Table 1; for inhibition at 1.25 µM / slope value (of slope value/control) 1.25 µM / inhibition at 3.75 µM / slope value (of slope value/control) 3.75 µM: screen; for inhibition at 1.25 µM / slope value (of slope value/control) 1.25 µM: 1.25 µM compound; for inhibition at 1.25 µM / inhibition at 3.75 µM: 1.75 µM enzyme, 20 µM substrate; for inhibition at 1.25 µM: read-out: Inhibition (%) 1.25 µM; for slope value (of slope value/control) 1.25 µM / slope value (of slope value/control) 3.75 µM: number after the slash is the control without compound; for inhibition at 3.75 µM / slope value (of slope value/control) 3.75 µM: 3.75 µM compound; for inhibition at 3.75 µM: read-out: Inhibition (%) 3.75 µM.

The target of data set [4] is T2, SARS-CoV-2 PLpro (Severe acute respiratory syndrome coronavirus 2, UniProt P0DTD1). It counts as biochemical. The note with it: 3.75 µM and 10 µM compound, 0.5 µM enzyme, 5 h RT.
Data set [5] deals with 3CLpro (nsp5) (Severe acute respiratory syndrome coronavirus 2, UniProt P0DTD1). It is filed as biochemical, SARS-CoV-2.
Data set [6] deals with T2, SARS-CoV-2 PLpro. It is filed as biochemical. The note with it: 10 µM inhibitor, 50 nM PLpro, 1 µM substrate, 1 h 25°C.
Data set [7] deals with T2, SARS-CoV-2 PLpro. It is filed as biochemical. The note with it: 10 µM inhibitor, 50 nM PLpro, 1 µM substrate, 1 h 25°C. The source holds these as a separate data set.
Data set [8] concerns SARS-CoV-2. The data set can be described thus: microbe, parasite or virus in culture. It is filed as cell-based.
For data set [9], the system named is PLpro from SARS-CoV-1. The note with it: cited from earlier work.
Data set [10] has as its system VERO E6 cells. The data set can be described thus: Cytotoxicity in the cell culture-based assay.
Data set [11] deals with VERO E6 cells.
The subject of data set [12] is SARS-CoV-1/-2 PLpro. The note with it: non-covalent inhibitor; cited from earlier work.
The mark [13] stands for this setting: Severe acute respiratory syndrome coronavirus 2, Vero C1008, VERO E6 cells, compound alone, read-out: EC50 viral proliferation.
The mark [14] stands for this setting: Severe acute respiratory syndrome coronavirus 2, Vero C1008, VERO E6 cells, compound plus 0.5 µM remdesivir, read-out: EC50 viral proliferation with remdesivir.

Where “and” joins values, the source holds several entries; their conditions need not be identical. Identical values can stand only once. Entries after “also recorded” stand apart in the source; their conditions may differ. Like-named read-outs stand apart in the source and are kept apart here.

For `C[N+]1(C)CCc2cc3c(cc2[C@H]1[C@@H]1OC(=O)c2c1ccc1c2OCO1)OCO3` [(-)-Bicuculline methbromide, 1(S), 9(R)], the remaining activity at 1.25 µM in data set [1] was 100%. In data set [2], the remaining activity at 3.75 µM turned out to be 103%.

One may read the IC50 as the concentration needed to halve the response being measured. The low end stands for higher potency, the high end for lower potency. The term inhibition denotes the drop in the measured response relative to a control, in per cent. `Cc1cccc2c3c(ccc12)C1=C(C(=O)C3=O)[C@@H](C)CO1` [Dihydrotanshinone I]: in [3], 0.586 µM corresponded to half-maximal inhibition (IC50), the Z score is −4.52, the inhibition at 1.25 µM came to 0% and the “slope value (of slope value/control) 1.25 µM” value is on record as 449. In data set [3], the inhibition at 3.75 µM was 33% and the “slope value (of slope value/control) 3.75 µM” value amounted to 329. Moreover, the midpoint of inhibition in data set [3] (listed as dihydrotanshione I), the IC50, lay at 0.59 µM. In [4], the “Inhibition of PLpro cleavage of the substrate (gel-based)” value was “show inhibition; also recorded: strongly inhibited”. In data set [5] (3 and 10 µM compound), the “Inhibition of 3CLpro activity (gel-based)” value is given as “did not inhibit”. Also, the “Inhibition of K48-linked Ub3 cleavage (DUB activity)” value (“Inhibition … (DUB activity)” below) in [6] is “potent inhibition; also recorded: inhibited strongly”. The “Inhibition of pro-ISG15 cleavage (deISGylating activity)” value (“Inhibition of pro-ISG15 cleavage” for short) in [7] is reported as “potent inhibition”. Further, in data set [8] (setting [13]), the EC50 turned out to be 8 µM. The EC50 in data set [8] (setting [14]) amounted to 5.35 µM. Further, the EC50 in data set [8] (VERO E6 cells, compound alone, read-out: EC50 viral proliferation) amounted to 8.15 µM. Also, in [9], the “Inhibition of SARS-CoV-1 PLpro” value is recorded as “inhibit”. Further, in [10], the Cytotoxicity entry is recorded as “did not exhibit much cytotoxicity”.

As to `Cc1ccc(N)cc1C(=O)N[C@H](C)c1cccc2ccccc12` [GRL-0617], the EC50 was 32.6 µM in data set [8] (read-out: EC50 viral proliferation) and 32.2 µM in data set [8] (read-out: EC50 viral proliferation with remdesivir). Further, the Cytotoxicity result in data set [11] was “some cell toxicity at higher concentrations”. In data set [12], the “Effectiveness against SARS-CoV-1/-2 PLpro” value is recorded as “effective”.

Take `C=C1C(=O)O[C@@H]2[C@H]3O[C@]3(C)CC/C=C(\C)CC[C@@H]12` [Parthenolide]: in [1], the remaining activity at 1.25 µM is 96.7%. Further, in data set [2], the remaining activity at 3.75 µM stood at 97.3%.

For the compound `Cc1cc2nc3c(=O)[nH]c(=O)nc-3n(C)c2cc1C=O` [Ro 08-2750, 2,3,4,10-Tetrahydro-7,10-dimethyl-2,4-dioxobenzo[g]pteridine-8-carboxaldehyde], in [3], the IC50 was 0.53 µM and 0.531 µM; the Z score was −5.79; the inhibition at 1.25 µM is 19%; the “slope value (of slope value/control) 1.25 µM” value is reported as 366. Moreover, in data set [3], the inhibition at 3.75 µM was determined as 42% and the “slope value (of slope value/control) 3.75 µM” value stood at 287. Also, the “Inhibition of PLpro cleavage of the substrate (gel-based)” value in [4] is “show inhibition; also recorded: strongly inhibited”. Further, in data set [5] (3 and 10 µM compound), the “Inhibition of 3CLpro activity (gel-based)” value is reported as “did not inhibit”. Besides, in [6], the “Inhibition … (DUB activity)” value is reported as “moderate inhibition; also recorded: moderately”. The “Inhibition of pro-ISG15 cleavage” value in data set [7] is on record as “moderate inhibition”. Also, in data set [8] (setting [13]), the EC50 worked out at 20 µM. The EC50 in [8] (setting [14]) amounted to 22.7 µM. Also, in data set [11], the Cytotoxicity entry was “some cell toxicity at higher concentrations”.

Consider `CC1(C)CCC2=C(O1)c1ccccc1C(=O)C2=O` [beta-Lapachone], for which, in data set [3], the IC50 was found to be 0.61 µM, the Z score is −4.66, the inhibition at 1.25 µM came out at 7% and the “slope value (of slope value/control) 1.25 µM” value is 420. Further, in [3], the inhibition at 3.75 µM is 34% and the “slope value (of slope value/control) 3.75 µM” value was found to be 322. Moreover, in data set [4], the “Inhibition of PLpro cleavage of the substrate (gel-based)” value is on record as “show inhibition; also recorded: strongly inhibited”. In addition, the “Inhibition of 3CLpro activity (gel-based)” value in data set [5] was “did not inhibit”. Besides, the “Inhibition … (DUB activity)” value in data set [6] was “potent inhibition; also recorded: inhibited strongly”. Besides, in data set [7], the “Inhibition of pro-ISG15 cleavage” value is reported as “potent inhibition”. In addition, the EC50 in [8] (setting [13]) was found to be 4.39 µM. Also, in data set [10], the Cytotoxicity entry is recorded as “cytotoxic in the low micromolar range”.
